The target in the assay is T1, IRAK4 (Homo sapiens, UniProt Q9NWZ3).
T1 construct: Degradation of IRAK4 in OCI-LY10 was quantitatively measured using Meso Scale Discovery technology; endogenous in cells; host or cells: OCI-LY10
T1 sequence (Q9NWZ3 1-460): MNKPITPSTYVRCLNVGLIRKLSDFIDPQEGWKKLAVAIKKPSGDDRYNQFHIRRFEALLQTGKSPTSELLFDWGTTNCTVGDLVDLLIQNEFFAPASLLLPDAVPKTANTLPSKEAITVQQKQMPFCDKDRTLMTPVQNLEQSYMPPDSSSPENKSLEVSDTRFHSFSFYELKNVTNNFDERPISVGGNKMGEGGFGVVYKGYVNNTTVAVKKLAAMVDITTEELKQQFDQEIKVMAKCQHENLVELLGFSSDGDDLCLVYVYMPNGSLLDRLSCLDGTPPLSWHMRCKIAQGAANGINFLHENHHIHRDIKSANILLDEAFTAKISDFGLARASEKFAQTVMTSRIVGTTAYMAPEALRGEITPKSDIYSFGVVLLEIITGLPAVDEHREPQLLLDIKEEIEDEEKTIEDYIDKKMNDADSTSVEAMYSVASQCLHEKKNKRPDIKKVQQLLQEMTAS
The assay can be described thus: IRAK4 MSD Degradation in OCI-LY10. The following applies: OCI-LY10 cells, MSD. Type of assay: cell-based. The method, boiled down:
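OCI-LY10 cells exposed to 8-point 1:3 compound series (top 1 to 10 μM) for 4 to 24 h at 37 °C, 5% CO2. Lysate IRAK4 quantified by MSD sandwich immunoassay. DC50 from three-parameter logistic fit, binned A (<0.01 μM) to D (>0.2 μM or not tested).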

Where [1] appears, read: 4 hrs incubation, read-out: IRAK4 degradation in OCI-LY10 at 4 hrs: DC50.
The mark [2] stands for this setting: 24 hrs incubation, read-out: IRAK4 degradation in OCI-LY10 at 24 hrs: DC50.

SMILES strings stand for the structures. Where two headings read alike, the source gives them in different places.

As usually defined, the DC50 is the midpoint of the concentration-degradation curve. On to `COc1cc2nn([C@H]3CC[C@H](CN4CCC(c5cccc6c5n(C)c(=O)n6C5CCC(=O)NC5=O)C(F)(F)C4)CC3)cc2cc1NC(=O)c1cccc(C(F)(F)F)n1` (stereo partly drawn) [I-451], for which the DC50 is, setting by setting: under setting [1], > 0.2 µM; under setting [2], > 0.2 µM.

As to `Cc1cc2nn([C@H]3CC[C@H](CN4CCC(c5cccc6c5n(C)c(=O)n6C5CCC(=O)NC5=O)C(F)(F)C4)CC3)cc2cc1NC(=O)c1cccc(C(F)(F)F)n1` (stereo partly drawn) [I-452], the DC50 runs as follows: under setting [1], > 0.2 µM; under setting [2], > 0.2 µM.

In the case of `COc1ccc2c(c1N1CCC(N(C)C[C@H]3CC[C@H](n4cc(NC(=O)c5cnn6cccnc56)c(C(F)F)n4)CC3)C(F)(F)C1)n(C)c(=O)n2C1CCC(=O)NC1=O` (stereo partly drawn) [I-453], the DC50 is > 0.2 µM under setting [1] and > 0.2 µM under setting [2].

On to `Cn1c(=O)n(C2CCC(=O)NC2=O)c2cccc(C3=CCN(C[C@H]4CC[C@H](n5cc6cc(NC(=O)c7cccc(C(F)(F)F)n7)ccc6n5)CC4)CC3(F)F)c21` (stereo partly drawn) [I-454], for which the DC50 was > 0.2 µM under setting [1] and > 0.2 µM under setting [2].

Regarding `Cn1c(=O)n(C2CCC(=O)NC2=O)c2cccc(C3=CCN(C[C@H]4CC[C@H](n5cc6cc(NC(=O)c7cccc(C(F)(F)F)n7)c(C#N)cc6n5)CC4)CC3(F)F)c21` (stereo partly drawn) [I-455], the DC50 is > 0.2 µM under setting [1] and > 0.2 µM under setting [2].

For the compound `Cn1c(=O)n(C2CCC(=O)NC2=O)c2cccc(C3=CCN(C[C@H]4CC[C@H](n5cc6cc(NC(=O)c7cccc(C(F)(F)F)n7)c(C(F)F)cc6n5)CC4)CC3(F)F)c21` (stereo partly drawn) [I-456], the DC50 is, setting by setting: under setting [1], > 0.2 µM; under setting [2], > 0.2 µM.

Turning to `Cn1c(=O)n(C2CCC(=O)NC2=O)c2cccc(C3=CCN(C[C@H]4CC[C@H](n5cc6cc(NC(=O)c7cccc(C(F)(F)F)n7)ccc6n5)CC4)CC3F)c21` (stereo partly drawn) [I-457], the DC50 is > 0.2 µM under setting [1] and > 0.2 µM under setting [2].

With `Cn1c(=O)n(C2CCC(=O)NC2=O)c2cccc(C3=CCN(C[C@H]4CC[C@H](n5cc6cc(NC(=O)c7cccc(C(F)(F)F)n7)c(C#N)cc6n5)CC4)CC3F)c21` (stereo partly drawn) [I-458], the DC50 by setting is: under setting [1], > 0.2 µM; under setting [2], > 0.2 µM.

On to `Cn1c(=O)n(C2CCC(=O)NC2=O)c2cccc(C3=CCN(C[C@H]4CC[C@H](n5cc6cc(NC(=O)c7cccc(C(F)(F)F)n7)c(C(F)F)cc6n5)CC4)CC3F)c21` (stereo partly drawn) [I-459], for which the DC50 runs as follows: under setting [1], > 0.2 µM; under setting [2], > 0.2 µM.

With `Cn1c(=O)n(C2CCC(=O)NC2=O)c2cccc(C3CCN(C[C@H]4CC[C@H](n5cc6cc(NC(=O)c7cccc(C(F)(F)F)n7)ccc6n5)CC4)CC3O)c21` (stereo partly drawn) [I-460], the DC50 under setting [1] was > 0.2 µM and the DC50 under setting [2] is > 0.2 µM.

`Cn1c(=O)n(C2CCC(=O)NC2=O)c2cccc(C3CCN(C[C@]4(O)CC[C@@H](n5cc6cc(NC(=O)c7cccc(C(F)(F)F)n7)ccc6n5)CC4)CC3)c21` (stereo partly drawn) [I-461]: the DC50 was > 0.2 µM under setting [1] and > 0.2 µM under setting [2].

Turning to `COc1cc2nn([C@H]3CC[C@H](CN4CC=C(c5ccc6c(c5)n(C)c(=O)n6C5CCC(=O)NC5=O)C(F)(F)C4)CC3)cc2cc1NC(=O)c1cccc(C(F)(F)F)n1` (stereo partly drawn) [I-462], the DC50 was > 0.2 µM under setting [1] and > 0.2 µM under setting [2].

For the compound `COc1cc2nn([C@H]3CC[C@H](CN4CCC(c5ccc6c(c5)n(C)c(=O)n6C5CCC(=O)NC5=O)C(F)(F)C4)CC3)cc2cc1NC(=O)c1cccc(C(F)(F)F)n1` (stereo partly drawn) [I-463], the DC50 runs as follows: under setting [1], > 0.2 µM; under setting [2], > 0.2 µM.

Consider `Cn1c(=O)n(C2CCC(=O)NC2=O)c2ccc(C3=CCN(C[C@H]4CC[C@H](n5cc6cc(NC(=O)c7cccc(C(F)(F)F)n7)ccc6n5)CC4)CC3(F)F)cc21` (stereo partly drawn) [I-464], for which the DC50 by setting is: under setting [1], > 0.2 µM; under setting [2], > 0.2 µM.

With `Cn1c(=O)n(C2CCC(=O)NC2=O)c2ccc(C3CCN(C[C@H]4CC[C@H](n5cc6cc(NC(=O)c7cccc(C(F)(F)F)n7)ccc6n5)CC4)CC3(F)F)cc21` (stereo partly drawn) [I-465], the DC50 under setting [1] was > 0.2 µM and the DC50 under setting [2] was > 0.2 µM.

Consider `COc1cc2nn([C@H]3CC[C@H](CN4CC=C(c5cccc6c(N7CCC(=O)NC7=O)cncc56)C(F)(F)C4)CC3)cc2cc1NC(=O)c1cccc(C(F)(F)F)n1` [I-466], for which the DC50 by setting is: under setting [1], > 0.2 µM; under setting [2], > 0.2 µM.

Take `COc1cc2nn([C@H]3CC[C@H](CN4CCC(c5cccc6c(N7CCC(=O)NC7=O)cncc56)C(F)(F)C4)CC3)cc2cc1NC(=O)c1cccc(C(F)(F)F)n1` (stereo partly drawn) [I-467]: the half-maximal degradation concentration (DC50) by setting is: under setting [1], > 0.2 µM; under setting [2], > 0.2 µM.

`O=C1CCN(c2cncc3c(C4=CCN(C[C@H]5CC[C@H](n6cc7cc(NC(=O)c8cccc(C(F)(F)F)n8)ccc7n6)CC5)CC4(F)F)cccc23)C(=O)N1` [I-468]: the DC50 is > 0.2 µM under setting [1] and > 0.2 µM under setting [2].

On to `O=C1CCN(c2cncc3c(C4CCN(C[C@H]5CC[C@H](n6cc7cc(NC(=O)c8cccc(C(F)(F)F)n8)ccc7n6)CC5)CC4(F)F)cccc23)C(=O)N1` (stereo partly drawn) [I-469], for which the DC50 reads like this: under setting [1], > 0.2 µM; under setting [2], > 0.2 µM.

As to `COc1cc2nn([C@H]3CC[C@H](CN4CC=C(c5ccc6c(N7CCC(=O)NC7=O)cncc6c5)C(F)(F)C4)CC3)cc2cc1NC(=O)c1cccc(C(F)(F)F)n1` [I-470], the DC50 under setting [1] is > 0.2 µM and the DC50 under setting [2] was > 0.2 µM.

On to `COc1cc2nn([C@H]3CC[C@H](CN4CCC(c5ccc6c(N7CCC(=O)NC7=O)cncc6c5)C(F)(F)C4)CC3)cc2cc1NC(=O)c1cccc(C(F)(F)F)n1` (stereo partly drawn) [I-471], for which the DC50 reads like this: under setting [1], > 0.2 µM; under setting [2], > 0.2 µM.

Regarding `O=C1CCN(c2cncc3cc(C4=CCN(C[C@H]5CC[C@H](n6cc7cc(NC(=O)c8cccc(C(F)(F)F)n8)ccc7n6)CC5)CC4(F)F)ccc23)C(=O)N1` [I-472], the DC50 runs as follows: under setting [1], > 0.2 µM; under setting [2], > 0.2 µM.

`O=C1CCN(c2cncc3cc(C4CCN(C[C@H]5CC[C@H](n6cc7cc(NC(=O)c8cccc(C(F)(F)F)n8)ccc7n6)CC5)CC4(F)F)ccc23)C(=O)N1` (stereo partly drawn) [I-473]: the DC50 is, setting by setting: under setting [1], > 0.2 µM; under setting [2], > 0.2 µM.

With `CN(C[C@H]1CC[C@H](n2cc3cc(NC(=O)c4cccc(C(F)(F)F)n4)ccc3n2)CC1)C1CCN(c2cccc3c2n(C)c(=O)n3C2CCC(=O)NC2=O)CC1(F)F` (stereo partly drawn) [I-474], the DC50 is > 0.2 µM under setting [1] and > 0.2 µM under setting [2].

On to `COc1cc2nn([C@H]3CC[C@H](CN(C)C4CCN(c5cccc6c5n(C)c(=O)n6C5CCC(=O)NC5=O)CC4(F)F)CC3)cc2cc1NC(=O)c1cccc(C(F)(F)F)n1` (stereo partly drawn) [I-475], for which the DC50 runs as follows: under setting [1], > 0.2 µM; under setting [2], > 0.2 µM.

Take `CN(C[C@H]1CC[C@H](n2cc3cc(NC(=O)c4cccc(C(F)(F)F)n4)c(C(F)F)cc3n2)CC1)C1CCN(c2cccc3c2n(C)c(=O)n3C2CCC(=O)NC2=O)CC1(F)F` (stereo partly drawn) [I-476]: the DC50 runs as follows: under setting [1], > 0.2 µM; under setting [2], > 0.2 µM.

Regarding `CN(C[C@H]1CC[C@H](n2cc3cc(NC(=O)c4cccc(C(F)(F)F)n4)c(C#N)cc3n2)CC1)C1CCN(c2cccc3c2n(C)c(=O)n3C2CCC(=O)NC2=O)CC1(F)F` (stereo partly drawn) [I-477], the 50% degradation concentration (DC50) by setting is: under setting [1], > 0.2 µM; under setting [2], > 0.2 µM.

As for `CN(C[C@H]1CC[C@H](n2cc3cc(NC(=O)c4cccc(C(F)(F)F)n4)c([S+](C)[O-])cc3n2)CC1)C1CCN(c2cccc3c2n(C)c(=O)n3C2CCC(=O)NC2=O)CC1(F)F` (stereo partly drawn) [I-478], the DC50 runs as follows: under setting [1], > 0.2 µM; under setting [2], > 0.2 µM.

With `CN(C[C@H]1CC[C@H](n2cc3cc(NC(=O)c4cccc(C(F)(F)F)n4)c(S(C)(=O)=O)cc3n2)CC1)C1CCN(c2cccc3c2n(C)c(=O)n3C2CCC(=O)NC2=O)CC1(F)F` (stereo partly drawn) [I-479], the DC50 under setting [1] was > 0.2 µM and the DC50 under setting [2] is > 0.2 µM.

In the case of `CN(C[C@H]1CC[C@H](n2cc3cc(NC(=O)c4cccc(C(F)(F)F)n4)c(S(C)(=N)=O)cc3n2)CC1)C1CCN(c2cccc3c2n(C)c(=O)n3C2CCC(=O)NC2=O)CC1(F)F` (stereo partly drawn) [I-480], the DC50 runs as follows: under setting [1], > 0.2 µM; under setting [2], > 0.2 µM.

For the compound `CN(C[C@H]1CC[C@H](n2cc(NC(=O)c3cnn4cccnc34)c(C(F)F)n2)CC1)C1CCN(c2ccc3c(c2)n(C)c(=O)n3C2CCC(=O)NC2=O)CC1(F)F` (stereo partly drawn) [I-481], the DC50 is, setting by setting: under setting [1], > 0.2 µM; under setting [2], > 0.2 µM.

In the case of `CN(C[C@H]1CC[C@H](n2cc(NC(=O)c3cnn4cccnc34)c(C(F)F)n2)CC1)C1CCN(c2cccc3c2n(C)c(=O)n3C2CCC(=O)NC2=O)CC1F` (stereo partly drawn) [I-482], the DC50 is, setting by setting: under setting [1], > 0.2 µM; under setting [2], > 0.2 µM.

With `CN(C[C@H]1CC[C@H](n2cc(NC(=O)c3cnn4cccnc34)c(C(F)F)n2)CC1)C1C(F)CN(c2cccc3c2n(C)c(=O)n3C2CCC(=O)NC2=O)CC1F` (stereo partly drawn) [I-483], the DC50 was > 0.2 µM under setting [1] and > 0.2 µM under setting [2].

Consider `CN(C)c1ccn2ncc(C(=O)Nc3cn([C@H]4CC[C@H](CN(C)C5CCN(c6cccc7c6n(C)c(=O)n7C6CCC(=O)NC6=O)CC5(F)F)CC4)nc3C(F)F)c2n1` (stereo partly drawn) [I-484], for which the DC50 under setting [1] is > 0.2 µM and the DC50 under setting [2] lay in the range of 0.01 to 0.1 µM.

Turning to `CN(C[C@H]1CC[C@H](n2cc(NC(=O)c3cnn4cccnc34)c(C(F)F)n2)CC1)C1CCN(c2cccc3c2n(C)c(=O)n3C2CCC(=O)NC2=O)CC1O` (stereo partly drawn) [I-486], the DC50 is > 0.2 µM under setting [1] and > 0.2 µM under setting [2].

`CN(C[C@]1(O)CC[C@@H](n2cc(NC(=O)c3cnn4cccnc34)c(C(F)F)n2)CC1)C1CCN(c2cccc3c2n(C)c(=O)n3C2CCC(=O)NC2=O)CC1` (stereo partly drawn) [I-487]: the DC50 is > 0.2 µM under setting [1] and > 0.2 µM under setting [2].
